Columns and labels:
MCF-7 [1] = assay: relative IC50 (midpoint of fitted logistic curve, plateau may be below 50% inhibition; CellTiter-Glo viability); higher = less potent; conditions: 72 h
Method in brief: (§1)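 After seeding into 384-well plates with library drugs at five concentrations spanning a 10 000-fold range, breast cancer cell lines and their resistant derivatives were incubated 72 h at 37 °C. Resistant lines received medium with 1 μM of the selecting drug. CellTiter-Glo signal was read on a PHERAstar and scaled to vehicle-only and positive controls. Drug sensitivity score, relative IC50 (the curve midpoint) and top-dose inhibition came from logistic fits run in the Breeze pipeline.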

BT-474 Tam2 [2] = assay: as above; conditions: 4-OH-tamoxifen in medium 1 µM; 72 h
Method in brief: as §1

ZR-75-1 [3] = assay: as above; conditions: 72 h
Method in brief: as §1

BT-474 Tam1 [4] = assay: as above; conditions: 4-OH-tamoxifen in medium 1 µM; 72 h
Method in brief: as §1

T-47D Tam2 [5] = assay: as above; conditions: 4-OH-tamoxifen in medium 1 µM; 72 h
Method in brief: as §1

MCF-7 Tam1 [6] = assay: as above; conditions: 4-OH-tamoxifen in medium 1 µM; 72 h
Method in brief: as §1

ZR-75-1 Tam1 [7] = assay: as above; conditions: 4-OH-tamoxifen in medium 1 µM; 72 h
Method in brief: as §1

T-47D Tam1 [8] = assay: as above; conditions: 4-OH-tamoxifen in medium 1 µM; 72 h
Method in brief: as §1

BT-474 [9] = assay: as above; conditions: 72 h
Method in brief: as §1

T-47D [10] = assay: as above; conditions: 72 h
Method in brief: as §1

ZR-75-1 Tam2 [11] = assay: as above; conditions: 4-OH-tamoxifen in medium 1 µM; 72 h
Method in brief: as §1

MCF-7 [12] = assay: drug sensitivity score (DSS) (DSS (dimensionless)); higher = more sensitive; extreme values may be limits of the assay; conditions: 72 h
Method in brief: as §1

BT-474 Tam2 [13] = assay: as above; conditions: 4-OH-tamoxifen in medium 1 µM; 72 h
Method in brief: as §1

ZR-75-1 [14] = assay: as above; conditions: 72 h
Method in brief: as §1

BT-474 Tam1 [15] = assay: as above; conditions: 4-OH-tamoxifen in medium 1 µM; 72 h
Method in brief: as §1

T-47D Tam2 [16] = assay: as above; conditions: 4-OH-tamoxifen in medium 1 µM; 72 h
Method in brief: as §1

MCF-7 Tam1 [17] = assay: as above; conditions: 4-OH-tamoxifen in medium 1 µM; 72 h
Method in brief: as §1

ZR-75-1 Tam1 [18] = assay: as above; conditions: 4-OH-tamoxifen in medium 1 µM; 72 h
Method in brief: as §1

T-47D Tam1 [19] = assay: as above; conditions: 4-OH-tamoxifen in medium 1 µM; 72 h
Method in brief: as §1

BT-474 [20] = assay: as above; conditions: 72 h
Method in brief: as §1

T-47D [21] = assay: as above; conditions: 72 h
Method in brief: as §1

ZR-75-1 Tam2 [22] = assay: as above; conditions: 4-OH-tamoxifen in medium 1 µM; 72 h
Method in brief: as §1

Row | relative IC50 (MCF-7 [1]; 4-OH-tamoxifen in medium 0 µM) [µM] | relative IC50 (MCF-7 [1]; 4-OH-tamoxifen in medium 1 µM) [µM] | relative IC50 (BT-474 Tam2 [2]) [µM] | relative IC50 (BT-474 Tam1 [4]) [µM] | relative IC50 (T-47D Tam2 [5]) [µM] | relative IC50 (MCF-7 Tam1 [6]) [µM] | relative IC50 (T-47D Tam1 [8]) [µM] | relative IC50 (BT-474 [9]; 4-OH-tamoxifen in medium 0 µM) [µM] | relative IC50 (BT-474 [9]; 4-OH-tamoxifen in medium 1 µM) [µM] | relative IC50 (T-47D [10]; 4-OH-tamoxifen in medium 0 µM) [µM] | relative IC50 (T-47D [10]; 4-OH-tamoxifen in medium 1 µM) [µM] | SMILES | relative IC50 (ZR-75-1 [3]; 4-OH-tamoxifen in medium 0 µM) [µM] | relative IC50 (ZR-75-1 [3]; 4-OH-tamoxifen in medium 1 µM) [µM] | relative IC50 (ZR-75-1 Tam1 [7]) [µM] | relative IC50 (ZR-75-1 Tam2 [11]) [µM] | drug sensitivity score (MCF-7 [12]; 4-OH-tamoxifen in medium 0 µM) | drug sensitivity score (MCF-7 [12]; 4-OH-tamoxifen in medium 1 µM) | drug sensitivity score (BT-474 Tam2 [13]) | drug sensitivity score (ZR-75-1 [14]; 4-OH-tamoxifen in medium 0 µM) | drug sensitivity score (ZR-75-1 [14]; 4-OH-tamoxifen in medium 1 µM) | drug sensitivity score (BT-474 Tam1 [15]) | drug sensitivity score (T-47D Tam2 [16]) | drug sensitivity score (MCF-7 Tam1 [17]) | drug sensitivity score (ZR-75-1 Tam1 [18]) | drug sensitivity score (T-47D Tam1 [19]) | drug sensitivity score (BT-474 [20]; 4-OH-tamoxifen in medium 0 µM) | drug sensitivity score (BT-474 [20]; 4-OH-tamoxifen in medium 1 µM) | drug sensitivity score (T-47D [21]; 4-OH-tamoxifen in medium 0 µM) | drug sensitivity score (T-47D [21]; 4-OH-tamoxifen in medium 1 µM) | drug sensitivity score (ZR-75-1 Tam2 [22])
1 | > 1 | > 1 | > 1 | > 1 | > 1 | > 1 | > 1 | > 1 | > 1 | > 1 | > 1 | O=C(O)CC[C@H]1CC[C@@](c2cc(F)ccc2F)(S(=O)(=O)c2ccc(Cl)cc2)CC1 [MK-0752] | > 1 | > 1 | > 1 | > 1 | 0 | 0 | 0 | 0 | 0 | 0 | 0 | 0 | 0 | 0 | 0 | 0 | 0 | 0 | 0
2 | > 990 | > 990 | > 990 | > 990 | > 990 | > 990 | > 990 | > 990 | > 990 | > 990 | > 990 | Nc1nc(=O)c2c([nH]1)NCC(CNc1ccc(C(=O)N[C@@H](CCC(=O)O)C(=O)O)cc1)N2C=O (mixture of isomers) [Folinic acid] | > 990 | > 990 | > 990 | > 990 | 0 | 0 | 0 | 0.942 | 0 | 0 | 0 | 0 | 0 | 0 | 0 | 0 | 0 | 0 | 0
3 | > 10 | > 10 | > 10 | > 10 | > 10 | > 10 | > 10 | > 10 | > 10 | > 10 | > 10 | O=C(CCBr)N1CCN(C(=O)CCBr)CC1 [Pipobroman] | > 10 | > 10 | > 10 | > 10 | 0 | 0 | 0 | 0 | 0 | 0 | 0 | 0 | 0 | 0 | 0 | 0 | 0 | 0 | 0
4 | > 10 | > 10 | > 10 | > 10 | > 10 | > 10 | > 10 | > 10 | > 10 | > 10 | > 10 | C[C@]12C=CC(=O)C=C1CC[C@@H]1[C@@H]2C(=O)C[C@@]2(C)[C@H]1CC[C@]2(O)C(=O)CO [Prednisone] | > 10 | > 10 | > 10 | > 10 | 0 | 0 | 0 | 0 | 0 | 0 | 0 | 0 | 0 | 0 | 0 | 0 | 0 | 0 | 0
5 | > 10 | > 10 | > 10 | > 10 | > 10 | > 10 | > 10 | > 10 | > 10 | > 10 | > 10 | O=C1CN2Cc3c(ccc(Cl)c3Cl)N=C2N1 [Anagrelide] | > 10 | > 10 | > 10 | > 10 | 0 | 0 | 0 | 0 | 0 | 0 | 0 | 0 | 0 | 0 | 0 | 0 | 0 | 0 | 0

Row | SMILES | relative IC50 (MCF-7 [1]; 4-OH-tamoxifen in medium 0 µM) [µM] | relative IC50 (MCF-7 [1]; 4-OH-tamoxifen in medium 1 µM) [µM] | relative IC50 (BT-474 Tam2 [2]) [µM] | relative IC50 (BT-474 Tam1 [4]) [µM] | relative IC50 (T-47D Tam2 [5]) [µM] | relative IC50 (MCF-7 Tam1 [6]) [µM] | relative IC50 (T-47D Tam1 [8]) [µM] | relative IC50 (BT-474 [9]; 4-OH-tamoxifen in medium 0 µM) [µM] | relative IC50 (BT-474 [9]; 4-OH-tamoxifen in medium 1 µM) [µM] | relative IC50 (T-47D [10]; 4-OH-tamoxifen in medium 0 µM) [µM] | relative IC50 (T-47D [10]; 4-OH-tamoxifen in medium 1 µM) [µM] | relative IC50 (ZR-75-1 [3]; 4-OH-tamoxifen in medium 0 µM) [µM] | relative IC50 (ZR-75-1 [3]; 4-OH-tamoxifen in medium 1 µM) [µM] | relative IC50 (ZR-75-1 Tam1 [7]) [µM] | relative IC50 (ZR-75-1 Tam2 [11]) [µM] | drug sensitivity score (MCF-7 [12]; 4-OH-tamoxifen in medium 0 µM) | drug sensitivity score (MCF-7 [12]; 4-OH-tamoxifen in medium 1 µM) | drug sensitivity score (BT-474 Tam2 [13]) | drug sensitivity score (ZR-75-1 [14]; 4-OH-tamoxifen in medium 0 µM) | drug sensitivity score (ZR-75-1 [14]; 4-OH-tamoxifen in medium 1 µM) | drug sensitivity score (BT-474 Tam1 [15]) | drug sensitivity score (T-47D Tam2 [16]) | drug sensitivity score (MCF-7 Tam1 [17]) | drug sensitivity score (ZR-75-1 Tam1 [18]) | drug sensitivity score (T-47D Tam1 [19]) | drug sensitivity score (BT-474 [20]; 4-OH-tamoxifen in medium 0 µM) | drug sensitivity score (BT-474 [20]; 4-OH-tamoxifen in medium 1 µM) | drug sensitivity score (T-47D [21]; 4-OH-tamoxifen in medium 0 µM) | drug sensitivity score (T-47D [21]; 4-OH-tamoxifen in medium 1 µM) | drug sensitivity score (ZR-75-1 Tam2 [22])
6 | Cn1cc(C2=C(c3cn(C4CCN(Cc5ccccn5)CC4)c4ccccc34)C(=O)NC2=O)c2ccccc21 [Enzastaurin] | > 10 | > 10 | > 10 | > 10 | > 10 | > 10 | > 10 | > 10 | > 10 | > 10 | > 10 | > 10 | > 10 | > 10 | > 10 | 0 | 0 | 0 | 0 | 0 | 0 | 0 | 0 | 0 | 0 | 0 | 0 | 0 | 0 | 0
7 | O=C(O)CCCc1ccc(N(CCCl)CCCl)cc1 [Chlorambucil] | > 10 | > 10 | > 10 | > 10 | > 10 | > 10 | > 10 | > 10 | > 10 | > 10 | > 10 | > 10 | > 10 | > 10 | > 10 | 0 | 0 | 0 | 0 | 0 | 0 | 0 | 0 | 0 | 0 | 0 | 0 | 0 | 0 | 0

Source: the supplement of paper PMC4932681
